# Data as given in US11214803B2, “Modulators of YAP1 expression” (Ionis Pharmaceuticals, Inc., priority 2019, dated 2022).
# Strand notation (5' to 3'): a small letter for the sugar, then the base; units joined by * are phosphorothioate-linked, units joined directly phosphodiester-linked; [ ] holds rarer units or linkages, { } end groups; capitals alone tell only the bases. e = 2'-O-(2-methoxyethyl) (MOE); k = constrained ethyl (cEt); [5mC] = 5-methylcytosine; d = 2'-deoxy (DNA); m = 2'-O-methyl
# System: Yap1 mRNA
# Assay: Antisense inhibition of human Yap1 in SNU-449 cells by modified oligonucleotides, single dose (Example 5, RTS36584)
# Type: cell-based
# Conditions: Table 39; SNU-449 cells, 10,000 cells per well, free uptake, 2,000 nM oligonucleotide, approx. 48 hours; RTS36584; normalized to RIBOGREEN; Yap1 mRNA relative to untreated control
# How it was run: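 Each modified oligonucleotide is applied by free uptake to SNU-449 cultures at 2,000 nM, and total RNA is harvested around 48 h later. Yap1 transcript, quantified with the RTS36584 set and corrected for RIBOGREEN RNA content, is given as % UTC. Asterisks mark sequences overlapping the amplicon.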
row,Substance,YAP1 (% UTC)
1,1198434 (kT*dG*dT*dA*dA*dT*dA*dT*dT*dG*d[5mC]*kA*eA*kT*e[5mC]*kT) [Compound 1198434],78 % UTC
2,1198391 (kG*dA*dG*dG*dT*dA*dT*dA*dA*d[5mC]*dT*kG*eG*kG*e[5mC]*kA) [Compound 1198391],29 % UTC
3,1198411 (kA*dG*dG*dA*dT*dG*d[5mC]*dA*dT*dG*dG*kT*eT*kT*eT*kT; antisense) [Compound 1198411],33 % UTC
4,1198410 (kA*dT*dA*dG*dT*dG*d[5mC]*dT*dT*dT*dG*kG*eA*kA*eG*kA; antisense) [Compound 1198410],48 % UTC

# Same assay, conditions: Table 40 (separate experiment); SNU-449 cells, 10,000 cells per well, free uptake, 2,000 nM oligonucleotide, approx. 48 hours; RTS36584; normalized to RIBOGREEN; Yap1 mRNA relative to untreated control
row,Substance,YAP1 (% UTC)
1,1198726 (kT*eT*kA*dG*dA*dG*dT*dA*dT*dG*dT*dG*eG*e[5mC]*kA*kA; antisense) [Compound 1198726],28 % UTC
2,1198799 (antisense k[5mC]*eT*kA*dA*dG*dT*dA*dA*dG*dG*dT*dT*eT*e[5mC]*k[5mC]*k[5mC]) [Compound 1198799],18 % UTC
3,1198783 (antisense kA*eT*kG*dT*dA*dA*dT*dA*dT*dT*dG*d[5mC]*eA*eA*kT*k[5mC]) [Compound 1198783],78 % UTC
4,1198445 (k[5mC]*dT*dT*dT*dA*dA*dA*dG*dT*dG*dT*kA*eT*kG*eT*k[5mC]; antisense) [Compound 1198445],61 % UTC
5,1198777 (kA*eT*kT*dG*d[5mC]*dA*dA*dT*d[5mC]*dT*dG*dT*e[5mC]*eT*kG*kA; antisense) [Compound 1198777],84 % UTC
6,1198729 (kA*eT*kA*dT*dT*dA*dG*dA*dG*dT*dA*dT*eG*eT*kG*kG; antisense) [Compound 1198729],21 % UTC
7,1198439 (kA*dG*dT*dG*dT*dA*dT*dG*dT*d[5mC]*dA*kG*eA*kA*eG*kA; antisense) [Compound 1198439],6 % UTC
8,1198742 (kT*eT*kT*dT*dA*d[5mC]*dA*dT*dT*dA*dG*dG*eA*eA*k[5mC]*kA; antisense) [Compound 1198742],143 % UTC

# Same assay, conditions: Table 41; SNU-449 cells, 10,000 cells per well, free uptake, 2,000 nM modified oligonucleotide, approximately 48 hours; RTS36584; normalized to RIBOGREEN; Yap1 mRNA relative to untreated control cells
row,Substance,YAP1 (% UTC)
1,1198774 (kA*eA*k[5mC]*dT*d[5mC]*dT*dT*dA*dT*dA*dT*dG*eG*eT*kT*kT; antisense) [Compound 1198774],106 % UTC
2,1198664 (antisense kG*k[5mC]*dT*dT*dT*dG*dG*dA*dA*dG*dA*dT*k[5mC]*eT*kG*eA) [Compound 1198664],18 % UTC
3,1198641 (kA*kT*dT*dA*dG*dA*dG*dT*dA*dT*dG*dT*kG*eG*k[5mC]*eA; antisense) [Compound 1198641],15 % UTC
4,1198739 (k[5mC]*eA*k[5mC]*dT*dG*dA*dG*dG*dT*dA*dT*dA*eA*e[5mC]*kT*kG; antisense) [Compound 1198739],94 % UTC
5,1198677 (antisense kA*kT*dT*d[5mC]*dA*dG*dA*dT*dT*dT*dA*dG*kG*eA*kT*eG) [Compound 1198677],87 % UTC
6,1198663 (antisense k[5mC]*kT*dT*dT*dG*dG*dA*dA*dG*dA*dT*d[5mC]*kT*eG*kA*eA) [Compound 1198663],76 % UTC

# Same assay, conditions: Table 42 (separate experiment); SNU-449 cells, 10,000 cells per well, free uptake, 2,000 nM modified oligonucleotide, approximately 48 hours; RTS36584; normalized to RIBOGREEN; Yap1 mRNA relative to untreated control cells
row,Substance,YAP1 (% UTC)
1,1198231 (kT*kT*dG*dG*dA*dA*dG*dA*dT*d[5mC]*dT*eG*eA*eA*kA*k[5mC]) [Compound 1198231],73 % UTC
2,1198685 (antisense k[5mC]*kA*dA*d[5mC]*dT*d[5mC]*dT*dT*dA*dT*dA*dT*kG*eG*kT*eT) [Compound 1198685],70 % UTC
3,1198678 (antisense kA*kT*dA*dT*dG*dG*dT*dT*dT*dT*dG*dT*kG*eT*kG*eT) [Compound 1198678],58 % UTC

# Same assay, conditions: Table 43 experiment; SNU-449 cells, 10,000 cells per well, free uptake, 2,000 nM, approximately 48 hours; RTS36584; Yap1 mRNA normalized to RIBOGREEN, relative to untreated control cells
row,Substance,YAP1 (% UTC)
1,1198252 (k[5mC]*kT*d[5mC]*dT*dT*dA*dT*dA*dT*dG*dG*eT*eT*eT*kT*kG; antisense) [Compound 1198252],26 % UTC
2,1198461 (antisense kG*kG*dA*dA*dA*dT*dT*dG*dT*d[5mC]*dT*e[5mC]*kA*eT*kG*e[5mC]) [Compound 1198461],24 % UTC
3,1198464 (antisense kA*kT*dA*dT*dG*dG*dA*dA*dA*dT*dT*eG*kT*e[5mC]*kT*e[5mC]) [Compound 1198464],41 % UTC

# Same assay, conditions: Table 44 experiment; SNU-449 cells, 10,000 cells per well, free uptake, 2,000 nM, approximately 48 hours; RTS36584; Yap1 mRNA normalized to RIBOGREEN, relative to untreated control cells
row,Substance,YAP1 (% UTC)
1,1198506 (kA*kT*dA*dT*dG*dG*dT*dT*dT*dT*dG*eT*kG*eT*kG*eT; antisense) [Compound 1198506],47 % UTC
2,1198906 (kT*kA*dT*dA*dT*dT*dA*dG*dA*dG*dT*kA*dT*kG*dT*kG; antisense) [Compound 1198906],56 % UTC
3,1198499 (kT*kT*dT*dA*dG*dG*dA*dT*dG*d[5mC]*dA*eT*kG*eG*kT*eT; antisense) [Compound 1198499],13 % UTC
4,1095621 (antisense kT*kG*dA*dG*dG*dT*dA*dT*dA*dA*d[5mC]*eT*kG*eG*kG*e[5mC]) [Compound 1095621],22 % UTC

# Same assay, conditions: Table 45; Yap1 mRNA as percent of untreated control, SNU-449 cells, single dose
row,Substance,YAP1 (% UTC)
1,1198962 (kT*kA*dA*dA*dG*dT*dG*dT*dA*dT*dG*kT*d[5mC]*kA*dG*kA; antisense) [Compound 1198962],52 % UTC
2,1198969 (kA*kA*dG*dT*dA*dA*dG*dG*dT*dT*dT*k[5mC]*d[5mC]*k[5mC]*dA*kG; antisense) [Compound 1198969],31 % UTC
3,1198947 (k[5mC]*kA*dA*d[5mC]*dT*d[5mC]*dT*dT*dA*dT*dA*kT*dG*kG*dT*kT; antisense) [Compound 1198947],88 % UTC

# Same assay, conditions: Table 46; Yap1 mRNA as percent of untreated control, SNU-449 cells, single dose
row,Substance,YAP1 (% UT)
1,1095427 (antisense k[5mC]*kA*d[5mC]*dT*dG*dA*dG*dG*dT*dA*dT*kA*eA*k[5mC]*eT*kG) [Compound 1095427],45 % UT

# Same assay, conditions: Table 48; Yap1 mRNA level relative to untreated control; modified oligonucleotides targeting SEQ ID NO.: 1 and 2
row,Substance,YAP1 (% UT)
1,1198297 (kA*kT*kT*dA*dG*dA*dG*dT*dA*dT*dG*dT*kG*eG*k[5mC]*eA; antisense) [Compound 1198297],8 % UT

# Same assay, conditions: Table 49; Yap1 mRNA level relative to untreated control; modified oligonucleotides targeting SEQ ID NO.: 1 and 2
row,Substance,YAP1 (% UT)
1,1198549 (antisense kA*kT*kG*dG*dA*dA*dA*dT*dT*dG*dT*d[5mC]*kT*k[5mC]*kA*eT) [Compound 1198549],84 % UT
2,1198356 (kT*kA*kA*dA*dG*dT*dG*dT*dA*dT*dG*dT*k[5mC]*eA*kG*eA; antisense) [Compound 1198356],5 % UT
3,1198579 (antisense kT*kG*k[5mC]*dT*dT*dT*dG*dG*dA*dA*dG*dA*kT*k[5mC]*kT*eG) [Compound 1198579],34 % UT
4,1198336 (k[5mC]*kT*kT*dA*dT*dA*dT*dG*dG*dT*dT*dT*kT*eG*kT*eG; antisense) [Compound 1198336],31 % UT
5,1198582 (antisense kA*kT*kA*dG*dT*dG*d[5mC]*dT*dT*dT*dG*dG*kA*kA*kG*eA) [Compound 1198582],63 % UT
6,1198352 (kT*kG*kT*dA*dT*dG*dT*d[5mC]*dA*dG*dA*dA*kG*eA*kG*eT; antisense) [Compound 1198352],7 % UT

# Same assay, conditions: Table 51; Yap1 mRNA remaining as percent of untreated control (UT), SNU-449 cells, single dose
row,Substance,YAP1 (% UT)
1,1197273 (kT*kA*kA*dG*mG*dT*dT*dT*d[5mC]*d[5mC]*d[5mC]*dA*dG*kA*kT*kT) [Compound 1197273],68 % UT
2,1197248 (antisense kT*kT*kA*dA*mG*d[5mC]*dA*d[5mC]*dT*dT*dT*dT*dA*k[5mC]*kA*kT) [Compound 1197248],75 % UT
3,"1197262 (A_{ks}A_{ks}^{m}C_{ks}T_{ds}C_{ys}T_{ds}T_{ds}A_{ds}T_{ds}A_{ds}T_{ds}G_{ds}G_{ds}T_{ks}T_{ks}T_{k}; as printed in the source, key not given here) [Compound 1197262]",89 % UT
4,1197260 (kT*kT*kA*dT*mA*dT*dG*dG*dT*dT*dT*dT*dG*kT*kG*kT) [Compound 1197260],65 % UT
5,1197267 (kA*kT*kG*dT*mA*dA*dT*dA*dT*dT*dG*d[5mC]*dA*kA*kT*k[5mC]) [Compound 1197267],62 % UT

# Same assay, conditions: Table 52; Yap1 mRNA, modified oligonucleotides targeting SEQ ID NO: 1 and 2
row,Substance,YAP1 (% UT)
1,"1200802 (TATAACTGGGCAAATT; cEt gapmer, phosphorothioate, 5-methylcytosine, chemistry not fully specified) [Compound 1200802]",89 % UT

# Same assay, conditions: Yap1 mRNA, percent of untreated control; modified oligonucleotides targeting SEQ ID NO: 1 and 2; Table 47
row,Substance,YAP1 (% UT)
1,1197209 (antisense kT*kG*kT*dA*dA*dT*dA*dT*dT*dG*d[5mC]*dA*dA*kT*k[5mC]*kT) [Compound 1197209],33 % UT
2,1197222 (antisense kA*kA*kG*dT*dA*dA*dG*dG*dT*dT*dT*d[5mC]*d[5mC]*k[5mC]*kA*kG) [Compound 1197222],40 % UT
3,1074463 (kT*kA*kG*dA*dG*dT*dA*dT*dG*dT*dG*dG*d[5mC]*kA*kA*kT; antisense) [Compound 1074463],20 % UT
4,1197184 (antisense kA*kG*k[5mC]*dA*d[5mC]*dT*dT*dT*dT*dA*d[5mC]*dA*dT*kT*kA*kG) [Compound 1197184],20 % UT
